The record followed here is ChEMBL document CHEMBL1155035, “Cyathuscavins A, B, and C, new free radical scavengers with DNA protection activity from the Basidiomycete Cyathus stercoreus” (Bioorg Med Chem Lett, 2008).

Assay [1] deals with Radical scavenging activity. In words: Antioxidant activity assessed as DPPH radical scavenging activity after 10 mins. Type of assay: functional.
Assay [2] in a line: Antioxidant activity assessed as ABTS radical scavenging activity after 12 hrs. Type of assay: functional.
Assay [3] can be described thus: Antioxidant activity assessed as superoxide radical anion scavenging activity after 8 mins. It counts as functional.
Assay [4] can be described thus: Protective effect against Fe2+/H2O2 radical-induced supercoiled DNA breakage at 1 mM.

SMILES strings stand for the structures. pEC50: −log10 of the molar value. Activity calls are given as the source filed them. The calls are words filed in the database; no cut-off is given here.

The term pEC50 denotes the EC50 on a negative log10 scale, so that one unit is a factor of ten. For `C/C=C/c1cc(O)cc(=O)o1`, the pEC50 was less than 4.00 in assay [1] and less than 4.30 in assay [2]. Also, the outcome in assay [3] was inactive.
Take `C/C=C/c1cc2c(c(=O)o1)-c1c(O)c(O)c(OC)c(C(=O)O)c1CO2` [CYATHUSCAVIN A]: the pEC50 in assay [1] was 4.71; in assay [2] it was 4.83; in assay [3] it was 4.66. Further, the Activity in assay [4] is 70%.
As to `C/C=C/c1cc2c(c(=O)o1)-c1c(O)c(O)c(OC)c(C(=O)O)c1C(OC)O2` (stereo not drawn) [CYATHUSCAVIN B], the pEC50 was 4.86 in assay [1], 5.01 in assay [2] and 4.60 in assay [3]. Besides, the Activity in assay [4] was determined as 90%.
For `C/C=C/c1cc2c(c(=O)o1)-c1c(O)c(O)c(OC)c(C(=O)O)c1C(O)O2` (stereo not drawn) [CYATHUSCAVIN C], the values for the pEC50 in assay [1] and in assay [2] were 4.71 and 5.15, respectively. Also, in assay [3], the outcome was inactive. The same molecule had an Activity in assay [4] of 70%.
As to `Cc1c(C)c2c(c(C)c1O)CCC(C)(C(=O)O)O2` (stereo not drawn) [TROLOX], the figures for the pEC50 in assay [1] and in assay [2] were 4.66 and 4.93, respectively. For the same molecule, the result in assay [3] was inactive.
